Results published in patent US10301267B2, “Compounds” (AstraZeneca AB, priority 2006, dated 2019).

target: FGFR1 active kinase (Homo sapiens, UniProt P11362); experiment: FGFR Kinase assay - Caliper Echo Dosing; assay type: biochemical; conditions: FGFR1 7.2 nM, 408 uM ATP, acoustic dosing; geometric mean of n
Sequence (P11362 22-822): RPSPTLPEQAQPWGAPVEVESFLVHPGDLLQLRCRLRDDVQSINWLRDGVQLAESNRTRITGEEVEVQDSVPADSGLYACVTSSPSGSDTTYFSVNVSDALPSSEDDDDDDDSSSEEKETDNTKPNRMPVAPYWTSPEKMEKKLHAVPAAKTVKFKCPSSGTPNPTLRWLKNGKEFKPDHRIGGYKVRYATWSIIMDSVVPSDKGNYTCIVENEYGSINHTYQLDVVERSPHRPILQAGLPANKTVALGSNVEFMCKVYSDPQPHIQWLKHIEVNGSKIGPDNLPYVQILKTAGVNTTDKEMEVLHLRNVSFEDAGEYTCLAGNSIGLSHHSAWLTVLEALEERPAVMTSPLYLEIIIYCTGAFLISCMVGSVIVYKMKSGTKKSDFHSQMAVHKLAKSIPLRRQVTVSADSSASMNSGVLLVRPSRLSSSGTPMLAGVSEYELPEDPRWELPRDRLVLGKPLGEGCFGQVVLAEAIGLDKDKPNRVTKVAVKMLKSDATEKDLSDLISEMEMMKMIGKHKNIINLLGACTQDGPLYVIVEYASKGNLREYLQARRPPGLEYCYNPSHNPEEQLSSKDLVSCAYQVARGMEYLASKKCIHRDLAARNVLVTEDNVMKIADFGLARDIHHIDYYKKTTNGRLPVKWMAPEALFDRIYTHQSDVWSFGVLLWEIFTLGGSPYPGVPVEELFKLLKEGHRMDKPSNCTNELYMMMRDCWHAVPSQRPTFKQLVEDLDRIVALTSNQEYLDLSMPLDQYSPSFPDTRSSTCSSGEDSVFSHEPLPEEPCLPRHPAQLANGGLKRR

Row | SMILES | IC50 [nM]
1 | C#CCN1CCC(c2ccc(C(=O)Nc3cc(CCc4cc(OC)cc(OC)c4)n[nH]3)cc2)CC1 [Example 146, N-[5-[2-(3,5-dimethoxyphenyl)ethyl]-2H-pyrazol-3-yl]-4-(1-prop-2-ynylpiperidin-4-yl)benzamide] | 1.1
2 | COc1cc(COc2cc(NC(=O)c3ccc(N4CCNC(C)(C)C4)cc3)[nH]n2)cc(OC)c1 [Example 111, N-[5-[(3,5-dimethoxyphenyl)methoxy]-2H-pyrazol-3-yl]-4-(3,3-dimethylpiperazin-1-yl)benzamide] | 0.76
3 | COc1cc(COc2cc(NC(=O)c3cnc(N4CCN5CCCC5C4)nc3)[nH]n2)cc(OC)c1 (stereo not shown) [Example 134, 2-(3,4,6,7,8,8a-hexahydro-1H-pyrrolo[2,1-c]pyrazin-2-yl)-N-[5-[(3,5-dimethoxyphenyl)methoxy]-2H-pyrazol-3-yl]pyrimidine-5-carboxamide] | 2.4
4 | COc1cc(COc2cc(NC(=O)c3ccc(N4C[C@@H](C)N[C@@H](C)C4)cc3)[nH]n2)cc(OC)c1 [Example 100, N-[5-[(3,5-dimethoxyphenyl)methoxy]-2H-pyrazol-3-yl]-4-[(3R,5S)-3,5-dimethylpiperazin-1-yl]benzamide] | 1.4
5 | CCN1CCN(c2ccc(C(=O)Nc3cc(OCc4cc(OC)cc(OC)c4)n[nH]3)cc2)CC1 [Example 179, N-[5-[(3,5-dimethoxyphenyl)methoxy]-2H-pyrazol-3-yl]-4-(4-ethylpiperazin-1-yl)benzamide] | 0.68
6 | COc1cc(CCc2cc(NC(=O)c3ccc(N4CC[N+](C)([O-])CC4)cc3)[nH]n2)cc(OC)c1 [Example 117, N-[5-[2-(3,5-Dimethoxyphenyl)ethyl]-2H-pyrazol-3-yl]-4-(4-methyl-4-oxidopiperazin-4-ium-1-yl)benzamide] | 1.3
7 | COc1cc(CCc2cc(NC(=O)c3ccc(CN(C)CC4CCCO4)cc3)n[nH]2)cc(OC)c1 (stereo not shown) [Example 57, N-[5-[2-(3,5-Dimethoxyphenyl)ethyl]-1H-pyrazol-3-yl]-4-[(methyl-(oxolan-2-ylmethyl)amino)methyl]benzamide] | 5.3
8 | COc1cc(CCc2cc(NC(=O)c3ccc(N4CC(C)N(C)C(C)C4)cc3)n[nH]2)cc(OC)c1 (stereo not shown) [Example 96, N-[5-[2-(3,5-Dimethoxyphenyl)ethyl]-1H-pyrazol-3-yl]-4-(3,4,5-trimethylpiperazin-1-yl)benzamide] | 0.54
9 | COc1cc(CCc2cc(NC(=O)c3cnc(N4C[C@@H](C)N(C)[C@@H](C)C4)cn3)[nH]n2)cc(OC)c1 [Example 125, N-[5-[2-(3,5-dimethoxyphenyl)ethyl]-2H-pyrazol-3-yl]-5-[(3R,5S)-3,4,5-trimethylpiperazin-1-yl]pyrazine-2-carboxamide] | 1.7
10 | COc1cc(COc2cc(NC(=O)c3cnc(N4CCN(C)C(C)C4)nc3)[nH]n2)cc(OC)c1 (stereo not shown) [Example 132, N-[5-[(3,5-dimethoxyphenyl)methoxy]-2H-pyrazol-3-yl]-2-(3,4-dimethylpiperazin-1-yl)pyrimidine-5-carboxamide] | 3.6
11 | COc1cc(CCc2cc(NC(=O)c3cnc(N4CCCN(C(C)C)CC4)nc3)[nH]n2)cc(OC)c1 [Example 173, N-[5-[2-(3,5-dimethoxyphenyl)ethyl]-2H-pyrazol-3-yl]-2-(4-propan-2-yl-1,4-diazepan-1-yl)pyrimidine-5-carboxamide] | 18
12 | COc1cc(CCc2cc(NC(=O)c3cnc(N4CCN(C5CC5)CC4)nc3)[nH]n2)cc(OC)c1 [Example 126, 2-(4-cyclopropylpiperazin-1-yl)-N-[5-[2-(3,5-dimethoxyphenyl)ethyl]-2H-pyrazol-3-yl]pyrimidine-5-carboxamide] | 3.6
13 | COc1cc(COc2cc(NC(=O)c3ccc(N4C[C@@H](C)N(C)[C@@H](C)C4)cc3)[nH]n2)cc(OC)c1 [Example 110, N-[5-[(3,5-dimethoxyphenyl)methoxy]-2H-pyrazol-3-yl]-4-[(3R,5S)-3,4,5-trimethylpiperazin-1-yl]benzamide] | 0.68
